Experiments:
[1] = system: mice subjected to chronic mild stress (CMS); test: Alcohol consumption in mice subjected to chronic mild stress (CMS); type: in vivo, mouse; conditions: for alcohol consumption: mice subjected to chronic mild stress (CMS); for CB2R agonist or antagonist effect on alcohol consumption: normal mice not subjected to CMS
Description: The involvement of brain neuronal CB2Rs in drug abuse and depression is studied by using the conditional ko mice of the invention. Mice preferring alcohol have reduced Cnr2 gene expression in the ventral midbrain whereas the Cnr2 gene expression is unaltered in the ventral midbrain region of mice with little or no preference for alcohol. […] This CB2R agonist or antagonist effect is absent in normal mice that were not subjected to CMS.

CB2R = target: T1, CB2R (Mus musculus, UniProt P47936); test: Early and pretreatment with CB2R agonist in stroke; type: in vivo
T1 construct: from tissue; host or cells: living mouse; brain (microglia and neurons) after stroke
T1 sequence (P47936 whole entry): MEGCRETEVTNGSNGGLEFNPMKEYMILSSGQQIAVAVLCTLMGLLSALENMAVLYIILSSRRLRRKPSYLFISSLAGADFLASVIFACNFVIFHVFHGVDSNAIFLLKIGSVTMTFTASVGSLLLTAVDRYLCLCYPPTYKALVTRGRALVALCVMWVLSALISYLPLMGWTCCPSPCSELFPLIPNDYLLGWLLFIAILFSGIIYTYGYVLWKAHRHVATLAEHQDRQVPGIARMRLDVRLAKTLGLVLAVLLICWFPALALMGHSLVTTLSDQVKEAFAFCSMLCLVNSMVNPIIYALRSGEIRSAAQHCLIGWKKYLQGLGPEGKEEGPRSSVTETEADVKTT
Description: Optimal treatment time with CB2R agonist for anti-inflammation and neurodegeneration is studied after stroke. […] Using Cx3crl-Cnr2 and Nestin-Cnr2 pre-clinical mouse models of stroke timed experiments by administering the commercially available CB2R agonist […] at specific time points post infarct at selected doses provides data to evaluate compounds for this use. The CB2R molecular pathways and partners in stroke studied in microglia and neural progenitor cells (NPC) on different post stroke days are evaluated when various compounds are tested. Such microglia and neuron specific CB2Rs-KO stroke behavioral models allow precise mapping of CB2R selective agonist (e.g. JWH133) for potential protective roles in stroke.

BTBR mice = test: Behavioral effects of THC in a mouse model of depression (time and number of immobility); type: in vivo; conditions: BTBR mice (autism-like phenotype) compared to control mice; FIG. 1
Description: FIG. 1. Behavioral effects THC in a mouse model of depression: The time and number of immobility in the test is the index measured.

Cnr2 gene transcripts = test: Expression of Cnr2 gene transcripts in rodents treated with abused substances; type: in vivo; conditions: treated animals in comparison to controls

Structure (SMILES)	alcohol consumption [1]	CB2R agonist or antagonist effect on alcohol consumption [1]	brain infarct volumes (CB2R)	neurological deficits (CB2R)	further results
COc1ccc(C(=O)c2c(C)n(CCN3CCOCC3)c3cc(I)ccc23)cc1 [AM630]	reduces the stress-induced increase in alcohol consumption	absent			
CN1CCCCC1Cn1cc(C(=O)c2cc([N+](=O)[O-])ccc2I)c2ccccc21 (stereo not shown) [AM1241]			significantly reduce	significantly reduce	
CCCC(C)(C)c1ccc2c(c1)OC(C)(C)[C@@H]1CC=C(C)C[C@@H]21 [JWH133]			significantly reduce	significantly reduce	
CCCn1c(C)c(C(=O)c2cccc3ccccc23)c2ccccc21 [JWH 015]	enhances alcohol consumption	absent			
CCCCCc1cc(O)c2c(c1)OC(C)(C)[C@@H]1CCC(C)=C[C@@H]21 [THC, tetrahydrocannabinol]					Behavioral effects of THC: time and number of immobility (BTBR mice): BTBR mice are insensitive to the effects of THC
CC(=O)Oc1ccc2c3c1O[C@H]1[C@@H](OC(C)=O)C=C[C@H]4[C@@H](C2)N(C)CC[C@@]341 [heroin]					Cnr2 gene transcripts in the brain (Cnr2 gene transcripts): increased Cnr2 gene transcripts

— US20190029238A1, “[…]” (William Paterson University Of New Jersey, priority 2015, published 2019)
